Data from patent US20260355196A1, “INHIBITORS AND DEGRADERS OF PIP4K PROTEIN” (Larkspur Biosciences, Inc., priority 2023, published 2026).

These compounds were tested against T1, PIP4K2C (Homo sapiens, UniProt Q8TBX8) (assay: Enzyme Binding Assay (KINOMEscan): active site-directed competition binding to an immobilized ligand). Settings: 11-point dose response, duplicate, top concentration 5 micromolar; read-out: Pip4k2c Kd: IC50.
T1 sequence (Q8TBX8 1-421): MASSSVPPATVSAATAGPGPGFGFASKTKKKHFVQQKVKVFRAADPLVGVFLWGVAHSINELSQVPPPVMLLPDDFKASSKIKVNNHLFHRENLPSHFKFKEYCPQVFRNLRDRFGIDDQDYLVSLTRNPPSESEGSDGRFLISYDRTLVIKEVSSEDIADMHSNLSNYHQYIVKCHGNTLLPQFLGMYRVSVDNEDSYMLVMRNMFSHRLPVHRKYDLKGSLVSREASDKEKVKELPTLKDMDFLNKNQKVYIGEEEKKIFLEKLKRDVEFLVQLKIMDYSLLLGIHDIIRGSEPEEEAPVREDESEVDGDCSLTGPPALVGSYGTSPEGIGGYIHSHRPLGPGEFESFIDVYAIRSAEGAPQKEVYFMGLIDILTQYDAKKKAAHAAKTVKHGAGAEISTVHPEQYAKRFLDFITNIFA
Set-up: purchased Eurofins DiscoverX, San Diego, CA 87-0007-1094
How it was run: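 Active site-directed competition binding against an immobilized ligand. 11-point dose-response in duplicate, top concentration 5 micromolar; IC50 from a Hill equation fitted by the Levenberg-Marquardt algorithm.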

Q: How did the IC50 turn out when CC(=O)N1CCC(Nc2ncc(F)c(N3CCC[C@H](C(=O)N4CC[C@H](O)C4)C3)n2)CC1 [Compound 215, 1-(4-((5-fluoro-4-((S)-3-((S)-3-hydroxypyrrolidine-1-carbonyl)piperidin-1-yl)pyrimidin-2-yl)amino)piperidin-1-yl)ethan-1-one] was run?
A: 1000 to 5000 nM

Q: With CC(=O)N1CCC(Nc2ncc(F)c(-c3cccc(C(=O)N4CCC(O)(CO)CC4)c3)n2)CC1 [Compound 217, 1-[4-[[5-fluoro-4-[3-[4-hydroxy-4-(hydroxymethyl)piperidine-1-carbonyl]phenyl]pyrimidin-2-yl]amino]-1-piperidyl]ethanone] as the compound, how does the IC50 read?
A: < 500 nM

Q: Cc1ccc(=O)n(-c2cccc(-c3nc(N[C@H]4CC[C@H](C(N)=O)CC4)ncc3F)c2)c1 [Compound 247, trans-4-((5-fluoro-4-(3-(5-methyl-2-oxopyridin-1 (2H)-yl)phenyl)pyrimidin-2-yl)amino)cyclohexane-1-carboxamide] was tested. Which IC50 did it give?
A: < 500 nM

Q: With CC(=O)N1CCC(Nc2ncc(F)c(N3CCCC(n4ccccc4=O)C3)n2)CC1 (stereo not shown) [Compound 189, 1-(1-(2-((1-acetylpiperidin-4-yl)amino)-5-fluoropyrimidin-4-yl)piperidin-3-yl)pyridin-2(1H)-one] as the compound, how does the IC50 read?
A: 1000 to 5000 nM

Q: With CC(=O)N1CCC(Nc2ncc(F)c(-c3cccc(N4CCC(O)CC4)c3)n2)CC1 [Compound 211, 1-(4-((5-fluoro-4-(3-(4-hydroxypiperidin-1-yl)phenyl)pyrimidin-2-yl)amino)piperidin-1-yl)ethan-1-one] as the compound, how does the IC50 read?
A: < 500 nM

Q: CC(=O)N1CCC(Nc2ncc(F)c(-c3cccc(C4(O)COC4)c3)n2)CC1 [Compound 171, 1-(4-((5-fluoro-4-(3-(3-hydroxyoxetan-3-yl)phenyl)pyrimidin-2-yl)amino)piperidin-1-yl)ethan-1-one] was tested. Which IC50 did it give?
A: < 500 nM

Q: Which IC50 does the source give for CC(=O)N1CCC(Nc2ncc(Cl)c(-c3cnn(-c4ccc(=O)[nH]c4)c3)n2)CC1 [Compound 110, 5-(4-(2-((1-acetylpiperidin-4-yl)amino)-5-chloropyrimidin-4-yl)-1H-pyrazol-1-yl)pyridin-2(1H)-one] here?
A: < 500 nM

Q: With CC(=O)N1CCC[C@H](Nc2ncc(Cl)c(-c3ccc(=O)n(-c4ccc(F)cc4)c3)n2)C1 [Compound 143, (S)-5-(2-((1-acetylpiperidin-3-yl)amino)-5-chloropyrimidin-4-yl)-1-(4-fluorophenyl)pyridin-2(1H)-one] as the compound, how does the IC50 read?
A: 500 to 1000 nM

Q: How did the IC50 turn out when NC(=O)[C@H]1CC[C@H](Nc2ncc(F)c(-c3cccc(N4CCCCC4=O)c3)n2)CC1 [Compound 264, trans-4-((5-fluoro-4-(3-(2-oxopiperidin-1-yl)phenyl)pyrimidin-2-yl)amino)cyclohexane-1-carboxamide] was run?
A: < 500 nM

Q: CC(=O)N[C@H]1CC[C@H](Nc2ncc(F)c(-c3cccc(-n4cc(C)ccc4=O)c3)n2)CC1 [Compound 235, trans-N-(4-((5-fluoro-4-(3-(5-methyl-2-oxopyridin-1 (2H)-yl)phenyl)pyrimidin-2-yl)amino)cyclohexyl)acetamide] was tested. Which IC50 did it give?
A: < 500 nM

Q: Which IC50 does the source give for CC(=O)N1CCC[C@H](Nc2ncc(Cl)c(-c3cccc(-c4ccc(F)cc4)n3)n2)C1 [Compound 194, (S)-1-(3-((5-chloro-4-(6-(4-fluorophenyl)pyridin-2-yl)pyrimidin-2-yl)amino)piperidin-1-yl)ethan-1-one] here?
A: 1000 to 5000 nM

Q: For CC(=O)N1CCC(Nc2ncc(F)c(-c3cccc(N4CCCCC4=O)c3)n2)CC1 [Compound 221, 1-(3-(2-((1-acetylpiperidin-4-yl)amino)-5-fluoropyrimidin-4-yl)phenyl)piperidin-2-one], which IC50 is on record?
A: < 500 nM

Q: CNC(=O)[C@H]1CC[C@@H](Nc2ncc(Cl)c(-c3cccc(-c4ccc(F)cc4)n3)n2)CC1 [Compound 131, cis-(1s,4s)-4-((5-chloro-4-(6-(4-fluorophenyl)pyridin-2-yl)pyrimidin-2-yl)amino)-N-methylcyclohexane-1-carboxamide] was tested. Which IC50 did it give?
A: < 500 nM

Q: With CC(=O)N1CCC(Nc2ncc(F)c(-c3cccc(C(=O)N4CC(O)C4)c3)n2)CC1 [Compound 214, 1-(4-((5-fluoro-4-(3-(3-hydroxyazetidine-1-carbonyl)phenyl)pyrimidin-2-yl)amino)piperidin-1-yl)ethan-1-one] as the compound, how does the IC50 read?
A: < 500 nM

Q: CNC(=O)[C@H]1C[C@@H](Nc2ncc(Cl)c(-c3cnn(-c4ccc(=O)[nH]c4)c3)n2)C1 [Compound 164, cis-3-((5-chloro-4-(1-(6-oxo-1,6-dihydropyridin-3-yl)-1H-pyrazol-4-yl)pyrimidin-2-yl)amino)-N-methylcyclobutane-1-carboxamide] was tested. Which IC50 did it give?
A: < 500 nM

Q: CC(=O)N1CCC(Nc2ncc(F)c(-c3cccc(C4COC4)c3)n2)CC1 [Compound 169, 1-(4-((5-fluoro-4-(3-(oxetan-3-yl)phenyl)pyrimidin-2-yl)amino)piperidin-1-yl)ethan-1-one] was tested. Which IC50 did it give?
A: < 500 nM

Q: CC(=O)N[C@H]1CC[C@H](Nc2ncc(F)c(-c3cccc(N4CCOCC4=O)n3)n2)CC1 [Compound 270, trans-N-(4-((5-fluoro-4-(6-(3-oxomorpholino)pyridin-2-yl)pyrimidin-2-yl)amino)cyclohexyl)acetamide] was tested. Which IC50 did it give?
A: < 500 nM

Q: With CNC(=O)[C@H]1CC[C@H](Nc2ncc(Cl)c(-c3cccc(-c4cccc(=O)[nH]4)c3)n2)CC1 [Compound 92, trans-(1r,4r)-4-((5-chloro-4-(3-(6-oxo-1,6-dihydropyridin-2-yl)phenyl)pyrimidin-2-yl)amino)-N-methylcyclohexane-1-carboxamide] as the compound, how does the IC50 read?
A: < 500 nM

Q: How did the IC50 turn out when CC(=O)N[C@H]1CCC[C@@H](Nc2ncc(Cl)c(-c3cccc(-c4ccccc4)c3)n2)C1 (relative stereo) [Compound 33, cis-N-(3-((4-([1,1′-biphenyl]-3-yl)-5-chloropyrimidin-2-yl)amino)cyclohexyl)acetamide] was run?
A: < 500 nM

Q: Which IC50 does the source give for CC(=O)N1CCC(Nc2ncc(F)c(-c3cccc(N4C[C@@H](O)CC4=O)c3)n2)CC1 [Compound 230, (4S)-1-[3-[2-[(1-acetyl-4-piperidyl)amino]-5-fluoro-pyrimidin-4-yl]phenyl]-4-hydroxy-pyrrolidin-2-one] here?
A: < 500 nM

Q: How did the IC50 turn out when CNC(=O)[C@H]1CC[C@H](Nc2ncc(Cl)c(-c3cccc(-c4ccc(F)cc4)c3)n2)CC1 [Compound 101, trans-(1r,4r)-4-((5-chloro-4-(4′-fluoro-[1,1′-biphenyl]-3-yl)pyrimidin-2-yl)amino)-N-methylcyclohexane-1-carboxamide] was run?
A: < 500 nM

Q: CNC(=O)[C@H]1CC[C@@H](Nc2ncc(Cl)c(-c3cccc(-n4ccccc4=O)c3)n2)CC1 [Compound 104, cis-(1s,4s)-4-((5-chloro-4-(3-(2-oxopyridin-1 (2H)-yl)phenyl)pyrimidin-2-yl)amino)-N-methylcyclohexane-1-carboxamide] was tested. Which IC50 did it give?
A: < 500 nM

Q: With NC(=O)[C@@H]1CCC[C@H](Nc2ncc(F)c(-c3ccc(=O)n(-c4ccc(F)cc4)c3)n2)C1 (relative stereo) [Compound 41, cis-3-((5-fluoro-4-(1-(4-fluorophenyl)-6-oxo-1,6-dihydropyridin-3-yl)pyrimidin-2-yl)amino)cyclohexane-1-carboxamide] as the compound, how does the IC50 read?
A: < 500 nM

Q: With CC(=O)N[C@H]1CC[C@H](Nc2ncc(F)c(-c3cccc(C4CCCN(C(C)=O)C4)c3)n2)CC1 (stereo partly drawn) [Compound 174, trans-N-(4-((4-(3-(1-acetylpiperidin-3-yl)phenyl)-5-fluoropyrimidin-2-yl)amino)cyclohexyl)acetamide] as the compound, how does the IC50 read?
A: < 500 nM

Q: How did the IC50 turn out when Cc1ccc(=O)n(-c2cccc(-c3nc(N[C@H]4CCC[C@@H](C(N)=O)C4)ncc3F)c2)c1 [Compound 207, (1R,3S)-3-((5-fluoro-4-(3-(5-methyl-2-oxopyridin-1 (2H)-yl)phenyl)pyrimidin-2-yl)amino)cyclohexane-1-carboxamide] was run?
A: < 500 nM

Q: CC(=O)N1CCC[C@H](Nc2ncc(Cl)c(-c3cccc(N4CCCCC4)c3)n2)C1 [Compound 37, (S)-1-(3-((5-chloro-4-(3-(piperidin-1-yl)phenyl)pyrimidin-2-yl)amino)piperidin-1-yl)ethan-1-one] was tested. Which IC50 did it give?
A: < 500 nM

Q: Which IC50 does the source give for CC(=O)N1CCC(Nc2ncc(F)c(-c3cccc(-c4ccccc4)c3)n2)CC1 [Compound 611, 1-(4-((4-([1,1′-biphenyl]-3-yl)-5-fluoropyrimidin-2-yl)amino)piperidin-1-yl)ethan-1-one] here?
A: < 500 nM

Q: Which IC50 does the source give for CC(=O)N[C@H]1CC[C@H](Nc2ncc(F)c(-c3cccc(C4(O)COC4)c3)n2)CC1 [Compound 176, N-(trans-4-((5-fluoro-4-(3-(3-hydroxyoxetan-3-yl)phenyl)pyrimidin-2-yl)amino)cyclohexyl)acetamide] here?
A: < 500 nM

Q: How did the IC50 turn out when NC(=O)[C@H]1CC[C@H](Nc2ncc(F)c(-c3cccc(N4CCCOC4=O)c3)n2)CC1 [Compound 236, trans-4-((5-fluoro-4-(3-(2-oxo-1,3-oxazinan-3-yl)phenyl)pyrimidin-2-yl)amino)cyclohexane-1-carboxamide] was run?
A: < 500 nM

Q: CC(=O)N[C@H]1CC[C@H](Nc2ncc(F)c(N3CCOCC3)n2)CC1 [Compound 182, trans-N-(4-((5-fluoro-4-morpholinopyrimidin-2-yl)amino)cyclohexyl)acetamide] was tested. Which IC50 did it give?
A: 1000 to 5000 nM

Q: CNC(=O)[C@H]1C[C@@H](Nc2ncc(Cl)c(-c3cnn(-c4ccc(F)cc4)c3)n2)C1 [Compound 122, cis-(1s,3s)-3-((5-chloro-4-(1-(4-fluorophenyl)-1H-pyrazol-4-yl)pyrimidin-2-yl)amino)-N-methylcyclobutane-1-carboxamide] was tested. Which IC50 did it give?
A: < 500 nM
